# Assay results published in patent US12564638B2 (SHANGHAITECH UNIVERSITY, priority 2019, dated 2026).
# Like-named read-outs stand apart in the source and are kept apart here.
# Columns and labels:
# Format in all cases: cell-based
# [1] = system: PC9 cells (EGFR Exon 19 del, non-small cell lung cancer cells); assay: Cell viability assay (WST/CCK8), PC9 cells; conditions: Homo sapiens, PC-9, PC9 (Exon19 Del), 72 hours, read-out: IC50 (half inhibitory concentration)
# In short: (§1)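 Plated 3 000 cells/well in complete RPMI1640 the day before dosing; controls were DMSO (negative) and EGFR TKIs (positive).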
# [2] = system: PC9BracA1 (EGFR Exon 19 del+T790M, non-small cell lung cancer cells); assay: Cell viability assay (WST/CCK8), PC9Brac1 cells; conditions: read-out: IC50 (half inhibitory concentration)
# Source text: (§2) The cell lines with abnormal EGFR expression used are as follows: • HCC827 cells (EGFR Exon19 del, non-small cell lung cancer cells); • PC9 cells (EGFR Exon 19 del, non-small cell lung cancer cells); • PC9BracA1 (EGFR Exon 19 del+T790M, non-small cell lung cancer cells) • H1975 (EGFR Exon T790M+L858R mutation, non-small cell lung cancer cell line) • BT474 cells (HER2 positive breast cancer cells)
# (§3) All of the half inhibitory concentrations (IC50) of these compounds of the present invention were determined with WST reagent from Fuyuan Biotec Company. The specific experiment procedures are as follows: Cancer cells were planted in 96-well-plate at the density of 3 000 cells per well with 100 μL RPMI1640 completed culture medium. In the next day, compounds with indicated concentrations were added to the cells, DMSO was used as the negative control and the EGFR TKIs were used to treat cells as the positive groups. After 72 hours drug treatment, cell viability was measured by using the WST reagent following the instructions.
# [3] = system: BT474 cells (HER2 positive breast cancer cells); assay: Cell viability assay (CCK8), BT474 cells; conditions: Homo sapiens, BT-474, Table 10, BT474, 72 hours, read-out: IC50 (half inhibitory concentration)
# Source text: as §2
# as §3, with “instructions. The growth inhibition curve of the compounds on cells were plotted by Prism GraphPad, and the compounds IC50 calculated from it.” for “instructions.”
# The cell viability assays were taken to determine the anti-tumor activity of these indicated compounds in BT474 cells, which can overexpress HER2 protein. The cells were treated with the gradient concentration of these compounds (the maximum concentration: 10 μM; 3-fold dilution ratio, 10 concentration gradients) for 72 hours and then incubated with the CCK8 reagent to determine the cell viability.
# [4] = system: HCC827 cells (EGFR Exon19 del, non-small cell lung cancer cells); assay: Cell viability assay (WST/CCK8), HCC827 cells; conditions: Homo sapiens, HCC827, 72 h, HCC827 (Exon19 Del), 72 hours, read-out: IC50 (half inhibitory concentration)
# In short: as §1
# [5] = system: H1975 (EGFR T790M+L858R mutation, non-small cell lung cancer cell line); assay: Cell viability assay (WST/CCK8), H1975 cells; conditions: Homo sapiens, NCI-H1975, H1975 (L858R + T790M), read-out: IC50 (half inhibitory concentration)
# Source text: as §2, §3
# [6] = PC9Brac1 (Ex19del + T790M), 72 hours, WST
# [7] = Table 6, canertinib-based compounds, WST
# [8] = Table 7, canertinib-based compounds, PC9Brca1 (Ex19del + T790M)
# [9] = Table 7, canertinib-based compounds
IC50 ([1]; WST (CCK8)) [nM],"IC50 [2, 6] [nM]",IC50 [3] [nM],IC50 ([4]; WST (CCK8)) [nM],"IC50 ([5]; 72 hours, WST) [nM]","IC50 [1, 7] [nM]","IC50 [2, 8] [nM]","IC50 [4, 7] [nM]","IC50 [5, 9] [nM]",Structure (SMILES)
7.9,481,39.3,3,952,,,,,"COc1cc2ncnc(Nc3ccc(F)c(Cl)c3)c2cc1NC(=O)/C=C/CN1CCC(NC(=O)CCCCCCNc2cccc3c2C(=O)N(C2CCC(=O)NC2=O)C3=O)CC1 (stereo not drawn) [SIAIS249085, (E)-N-(1-(4-((4-((3-chloro-4-fluorophenyl)amino)-7-methoxyquinazolin-6-yl)amino)-4-oxobut-2-en-1-yl)piperidin-4-yl)-7-((2-(2,6-dioxopiperidin-3-yl)-1,3-dioxoisoindolin-4-yl)amino)heptanamide]"
6.7,260,0.3,2.4,511,,,,,"COc1cc2ncnc(Nc3ccc(F)c(Cl)c3)c2cc1NC(=O)/C=C/CN1CCC(N2CCN(C(=O)CNc3cccc4c3C(=O)N(C3CCC(=O)NC3=O)C4=O)CC2)CC1 (stereo not drawn) [SIAIS262036, (E)-N-(4-((3-chloro-4-fluorophenyl)amino)-7-methoxyquinazolin-6-yl)-4-(4-(4-(2-((2-(2,6-dioxopiperidin-3-yl)-1,3-dioxoisoindolin-4-yl)amino)acetyl)piperazin-1-yl)piperidin-1-yl)but-2-enamide]"
7.2,488,33.7,4,550,,,,,"COc1cc2ncnc(Nc3ccc(F)c(Cl)c3)c2cc1NC(=O)/C=C/CN1CCC(NC(=O)CCCCCCSc2cccc3c2CN(C2CCC(=O)NC2=O)C3=O)CC1 (stereo not drawn) [SIAIS262115, (E)-N-(1-(4-((4-((3-chloro-4-fluorophenyl)amino)-7-methoxyquinazolin-6-yl)amino)-4-oxobut-2-en-1-yl)piperidin-4-yl)-7-((2-(2,6-dioxopiperidin-3-yl)-1-oxoisoindolin-4-yl)thio)heptanamide]"
3.8,205,63.2,3,299,,,,,"COc1cc2ncnc(Nc3ccc(F)c(Cl)c3)c2cc1NC(=O)/C=C/CN1CCC(NC(=O)CCCCCCCCCCSc2cccc3c2CN(C2CCC(=O)NC2=O)C3=O)CC1 (stereo not drawn) [SIAIS262118, (E)-N-(1-(4-((4-((3-chloro-4-fluorophenyl)amino)-7-methoxyquinazolin-6-yl)amino)-4-oxobut-2-en-1-yl)piperidin-4-yl)-11-((2-(2,6-dioxopiperidin-3-yl)-1-oxoisoindolin-4-yl)thio)undecanamide]"
,,48,,,23.1,474,4.1,97,"C=CC(=O)Nc1cc2c(Nc3ccc(F)c(Cl)c3)ncnc2cc1OCCCN1CCN(C(=O)CCCCSc2cccc3c2CN(C2CCC(=O)NC2=O)C3=O)CC1 (stereo not drawn) [SIAIS262122, N-(4-((3-chloro-4-fluorophenyl)amino)-7-(3-(4-(5-((2-(2,6-dioxopiperidin-3-yl)-1-oxoisoindolin-4-yl)thio)pentanoyl)piperazin-1-yl)propoxy)quinazolin-6-yl)acrylamide]"
,,48.9,,,8.3,380,2,143,"C=CC(=O)Nc1cc2c(Nc3ccc(F)c(Cl)c3)ncnc2cc1OCCCN1CCN(C(=O)CCCCCSc2cccc3c2CN(C2CCC(=O)NC2=O)C3=O)CC1 (stereo not drawn) [SIAIS262123, N-(4-((3-chloro-4-fluorophenyl)amino)-7-(3-(4-(6-((2-(2,6-dioxopiperidin-3-yl)-1-oxoisoindolin-4-yl)thio)hexanoyl)piperazin-1-yl)propoxy)quinazolin-6-yl)acrylamide]"
,,16.4,,,2.6,419,10.3,413,"C=CC(=O)Nc1cc2c(Nc3ccc(F)c(Cl)c3)ncnc2cc1OCCCN1CCN(C(=O)CNc2cccc3c2C(=O)N(C2CCC(=O)NC2=O)C3=O)CC1 (stereo not drawn) [SIAIS262124, N-(4-((3-chloro-4-fluorophenyl)amino)-7-(3-(4-(2-((2-(2,6-dioxopiperidin-3-yl)-1,3-dioxoisoindolin-4-yl)amino)acetyl)piperazin-1-yl)propoxy)quinazolin-6-yl)acrylamide]"
,,17.6,,,2.3,85,2.5,20,"C=CC(=O)Nc1cc2c(Nc3ccc(F)c(Cl)c3)ncnc2cc1OCCCN1CCN(C(=O)CCCCCCNc2cccc3c2C(=O)N(C2CCC(=O)NC2=O)C3=O)CC1 (stereo not drawn) [SIAIS262126, N-(4-((3-chloro-4-fluorophenyl)amino)-7-(3-(4-(7-((2-(2,6-dioxopiperidin-3-yl)-1,3-dioxoisoindolin-4-yl)amino)heptanoyl)piperazin-1-yl)propoxy)quinazolin-6-yl)acrylamide]"
,,5.1,,,29.3,216,1.2,45,"C=CC(=O)Nc1cc2c(Nc3ccc(F)c(Cl)c3)ncnc2cc1OCCCN1CCN(CCCCC#CC2c3ccccc3C(=O)N2C2CCC(=O)NC2=O)CC1 (stereo not drawn) [SIAIS262131, N-(4-((3-chloro-4-fluorophenyl)amino)-7-(3-(4-(6-(2-(2,6-dioxopiperidin-3-yl)-3-oxoisoindolin-1-yl)hex-5-yn-1-yl)piperazin-1-yl)propoxy)quinazolin-6-yl)acrylamide]"
,,28.2,,,16.7,267,11,287,"C=CC(=O)Nc1cc2c(Nc3ccc(F)c(Cl)c3)ncnc2cc1OCCCN1CCC(N2CCN(C(=O)CSc3cccc4c3CN(C3CCC(=O)NC3=O)C4=O)CC2)CC1 (stereo not drawn) [SIAIS262174, N-(4-((3-chloro-4-fluorophenyl)amino)-7-(3-(4-(4-(2-((2-(2,6-dioxopiperidin-3-yl)-1-oxoisoindolin-4-yl)thio)acetyl)piperazin-1-yl)piperidin-1-yl)propoxy)quinazolin-6-yl)acrylamide]"
,,1.4,,,15.8,472,3.3,67,"C=CC(=O)Nc1cc2c(Nc3ccc(F)c(Cl)c3)ncnc2cc1OCCCN1CCC(N2CCN(C(=O)CCCCCSc3cccc4c3CN(C3CCC(=O)NC3=O)C4=O)CC2)CC1 (stereo not drawn) [SIAIS262176, N-(4-((3-chloro-4-fluorophenyl)amino)-7-(3-(4-(4-(6-((2-(2,6-dioxopiperidin-3-yl)-1-oxoisoindolin-4-yl)thio)hexanoyl)piperazin-1-yl)piperidin-1-yl)propoxy)quinazolin-6-yl)acrylamide]"
,,8.2,,,3.4,209,5.7,654,"C=CC(=O)Nc1cc2c(Nc3ccc(F)c(Cl)c3)ncnc2cc1OCCCN1CCC(N2CCN(C(=O)CNc3cccc4c3C(=O)N(C3CCC(=O)NC3=O)C4=O)CC2)CC1 (stereo not drawn) [SIAIS262177, N-(4-((3-chloro-4-fluorophenyl)amino)-7-(3-(4-(4-(2-((2-(2,6-dioxopiperidin-3-yl)-1,3-dioxoisoindolin-4-yl)amino)acetyl)piperazin-1-yl)piperidin-1-yl)propoxy)quinazolin-6-yl)acrylamide]"
,,11.9,,,,1060,,250,"C=CC(=O)Nc1cc2c(Nc3ccc(F)c(Cl)c3)ncnc2cc1OCCCN1CCC(N2CCN(CCCCCCNc3cccc4c3C(=O)N(C3CCC(=O)NC3=O)C4=O)CC2)CC1 (stereo not drawn) [SIAIS262183, N-(4-((3-chloro-4-fluorophenyl)amino)-7-(3-(4-(4-(6-((2-(2,6-dioxopiperidin-3-yl)-1,3-dioxoisoindolin-4-yl)amino)hexyl)piperazin-1-yl)piperidin-1-yl)propoxy)quinazolin-6-yl)acrylamide]"
